Reference: PubChem BioAssay AID2060898 (Molecular Pharmacology Branch, DTP, NCI, 2025)

System: 616215-338-R-J1-PDC complex spheroid viability
Assay: Anticancer human tumor 616215-338-R-J1-PDC patient-derived colon adenocarcinoma cell line growth inhibition [RAS]
Settings: for IC50: curve of first compound; for viability, T/C: stronger effect = lower value
Method in brief: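 Tumour cells grown as complex spheroids with HUVEC endothelial cells and mesenchymal stem cells, treated with RAS pathway inhibitor combinations. Each agent spans half-log steps from near clinical Cmax, or 10 microM where Cmax is unknown.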
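Further: spheroids exposed to agents for seven days before viability readout.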
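Wherever viability, T/C is given: 100% = DMSO vehicle control viability.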

Q: Which results are given for `Nc1ccn(C2OC(CO)C(O)C2(F)F)c(=O)n1` (centres undefined) + CCn1c(-c2cccnc2C(C)OC)c2c3cc(ccc31)N1CCOC(CC(NC(=O)C(C(C)C)N(C)C(=O)C3(F)CCN(C(=O)C#CC(C)(C)N(C)C)CC3)C(=O)N3CCCC(N3)C(=O)OCC(C)(C)C2)C1?
A: IC50 (second compound 0.000949 µM): 15.2 nM; IC50 (second compound 0.003 µM): 11.2 nM; IC50 (second compound 0.00949 µM): 14.6 nM; IC50 (second compound 0.03 µM): 11.5 nM; IC50 (second compound 0.0949 µM): 10.1 nM; IC50 (second compound 0.3 µM): 9.55 nM; viability, T/C (second compound 0.000949 µM, first compound 0.00316 µM): 105%; viability, T/C (second compound 0.000949 µM, first compound 0.01 µM): 62.8%; viability, T/C (second compound 0.000949 µM, first compound 0.0316 µM): 28%; viability, T/C (second compound 0.000949 µM, first compound 0.1 µM): 13.1%; viability, T/C (second compound 0.000949 µM, first compound 0.316 µM): 16.3%; viability, T/C (second compound 0.000949 µM, first compound 1 µM): 14.2%; viability, T/C (second compound 0.003 µM, first compound 0.00316 µM): 114%; viability, T/C (second compound 0.003 µM, first compound 0.01 µM): 51.5%; viability, T/C (second compound 0.003 µM, first compound 0.0316 µM): 29%; viability, T/C (second compound 0.003 µM, first compound 0.1 µM): 14.6%; viability, T/C (second compound 0.003 µM, first compound 0.316 µM): 11.6%; viability, T/C (second compound 0.003 µM, first compound 1 µM): 12.4%; viability, T/C (second compound 0.00949 µM, first compound 0.00316 µM): 108%; viability, T/C (second compound 0.00949 µM, first compound 0.01 µM): 61.2%; viability, T/C (second compound 0.00949 µM, first compound 0.0316 µM): 27.5%; viability, T/C (second compound 0.00949 µM, first compound 0.1 µM): 14.7%; viability, T/C (second compound 0.00949 µM, first compound 0.316 µM): 14.1%; viability, T/C (second compound 0.00949 µM, first compound 1 µM): 13.2%; viability, T/C (second compound 0.03 µM, first compound 0.00316 µM): 114%; viability, T/C (second compound 0.03 µM, first compound 0.01 µM): 53.9%; viability, T/C (second compound 0.03 µM, first compound 0.0316 µM): 22.2%; viability, T/C (second compound 0.03 µM, first compound 0.1 µM): 14.9%; viability, T/C (second compound 0.03 µM, first compound 0.316 µM): 14.6%; viability, T/C (second compound 0.03 µM, first compound 1 µM): 13.5%; viability, T/C (second compound 0.0949 µM, first compound 0.00316 µM): 95.7%; viability, T/C (second compound 0.0949 µM, first compound 0.01 µM): 50.1%; viability, T/C (second compound 0.0949 µM, first compound 0.0316 µM): 22.9%; viability, T/C (second compound 0.0949 µM, first compound 0.1 µM): 14.3%; viability, T/C (second compound 0.0949 µM, first compound 0.316 µM): 15.2%; viability, T/C (second compound 0.0949 µM, first compound 1 µM): 12.6%; viability, T/C (second compound 0.3 µM, first compound 0.00316 µM): 69.7%; viability, T/C (second compound 0.3 µM, first compound 0.01 µM): 48.9%; viability, T/C (second compound 0.3 µM, first compound 0.0316 µM): 27.8%; viability, T/C (second compound 0.3 µM, first compound 0.1 µM): 16.6%; viability, T/C (second compound 0.3 µM, first compound 0.316 µM): 17%; viability, T/C (second compound 0.3 µM, first compound 1 µM): 17%

Q: Which results are given for `CC(=O)OC12COC1CC(O)C1(C)C(=O)C(O)C3=C(C)C(OC(=O)C(O)C(NC(=O)OC(C)(C)C)c4ccccc4)CC(O)(C(OC(=O)c4ccccc4)C21)C3(C)C` (centres undefined) + C=CC(=O)N1CCN(c2nc(OCC3CCCN3C)nc3c(F)c(-c4nc(N)cc(C)c4C(F)(F)F)c(Cl)cc23)C(C)C1?
A: IC50 (second compound 0.00316 µM): < 31.6 nM; IC50 (second compound 0.01 µM): < 31.6 nM; IC50 (second compound 0.0316 µM): < 31.6 nM; IC50 (second compound 0.1 µM): < 31.6 nM; IC50 (second compound 0.316 µM): < 31.6 nM; IC50 (second compound 1 µM): < 31.6 nM; viability, T/C (second compound 0.00316 µM, first compound 0.0316 µM): 28%; viability, T/C (second compound 0.00316 µM, first compound 0.1 µM): 22.4%; viability, T/C (second compound 0.00316 µM, first compound 0.316 µM): 18.4%; viability, T/C (second compound 0.00316 µM, first compound 1 µM): 18.6%; viability, T/C (second compound 0.00316 µM, first compound 3.16 µM): 18.3%; viability, T/C (second compound 0.00316 µM, first compound 10 µM): 24.5%; viability, T/C (second compound 0.01 µM, first compound 0.0316 µM): 25.3%; viability, T/C (second compound 0.01 µM, first compound 0.1 µM): 21.4%; viability, T/C (second compound 0.01 µM, first compound 0.316 µM): 17.5%; viability, T/C (second compound 0.01 µM, first compound 1 µM): 20.5%; viability, T/C (second compound 0.01 µM, first compound 3.16 µM): 18.7%; viability, T/C (second compound 0.01 µM, first compound 10 µM): 21.2%; viability, T/C (second compound 0.0316 µM, first compound 0.0316 µM): 21.3%; viability, T/C (second compound 0.0316 µM, first compound 0.1 µM): 23.9%; viability, T/C (second compound 0.0316 µM, first compound 0.316 µM): 16.5%; viability, T/C (second compound 0.0316 µM, first compound 1 µM): 18.5%; viability, T/C (second compound 0.0316 µM, first compound 3.16 µM): 20%; viability, T/C (second compound 0.0316 µM, first compound 10 µM): 21.9%; viability, T/C (second compound 0.1 µM, first compound 0.0316 µM): 24.3%; viability, T/C (second compound 0.1 µM, first compound 0.1 µM): 20.6%; viability, T/C (second compound 0.1 µM, first compound 0.316 µM): 20.6%; viability, T/C (second compound 0.1 µM, first compound 1 µM): 16.4%; viability, T/C (second compound 0.1 µM, first compound 3.16 µM): 21.1%; viability, T/C (second compound 0.1 µM, first compound 10 µM): 21%; viability, T/C (second compound 0.316 µM, first compound 0.0316 µM): 22.3%; viability, T/C (second compound 0.316 µM, first compound 0.1 µM): 22.3%; viability, T/C (second compound 0.316 µM, first compound 0.316 µM): 17.2%; viability, T/C (second compound 0.316 µM, first compound 1 µM): 18.5%; viability, T/C (second compound 0.316 µM, first compound 3.16 µM): 20.8%; viability, T/C (second compound 0.316 µM, first compound 10 µM): 23.9%; viability, T/C (second compound 1 µM, first compound 0.0316 µM): 22.4%; viability, T/C (second compound 1 µM, first compound 0.1 µM): 20.4%; viability, T/C (second compound 1 µM, first compound 0.316 µM): 18.7%; viability, T/C (second compound 1 µM, first compound 1 µM): 17.3%; viability, T/C (second compound 1 µM, first compound 3.16 µM): 23%; viability, T/C (second compound 1 µM, first compound 10 µM): 24.8%
